{"source": "patent US20050107616A1", "about": "“Alpha-ketoamide derivatives as cathepsin k inhibitors” (priority 2001, published 2005)", "format_in_all_cases": "biochemical", "key": {"human cathepsin V": {"molecular_target": "human cathepsin V (Homo sapiens, UniProt O60911)", "sequence (O60911 114-334)": "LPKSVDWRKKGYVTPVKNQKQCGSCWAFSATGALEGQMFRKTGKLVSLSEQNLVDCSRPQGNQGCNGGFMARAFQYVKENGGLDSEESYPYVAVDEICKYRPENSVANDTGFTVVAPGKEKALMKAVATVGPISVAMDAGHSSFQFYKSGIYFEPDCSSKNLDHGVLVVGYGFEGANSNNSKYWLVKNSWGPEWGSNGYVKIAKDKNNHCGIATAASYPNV", "experiment": "Cathepsin V inhibition assay, fluorogenic substrate Cbz-Phe-Arg-AMC", "details": "Table 2; human recombinant enzyme, pH 5.5, 30° C., 2 μM substrate; read-out: hCat V Ki", "description": "(§1) All assays for cathepsin K were carried out with human and rat recombinant enzyme. Assays for cathepsins S Et V were also carried out with human recombinant enzyme. Assays for human cathepsins B. H. and L were carried out with enzyme, purchased from Athens Research and Technology, Inc., prepared from human liver tissue. Standard assay conditions for the determination of kinetic constants used a fluorogenic peptide substrate, typically (5S,8S)-13-amino-5-benzyl-13-imino-3-methylene-N-(4methyl-2-oxo-2H-chromen-7-yl)-6-oxo-1-phenyl-2-oxa-4,7,12-triazatridecane-8-carboxamide (Cbz-Phe-Arg-AMC), and were determined in 100 mM sodium acetate at pH 5.5 containing 10 mM dithiothreitol and 120 mM sodium chloride. A stock substrate solution of Cbz-Phe-Arg-AMC was prepared at a concentration of 50 mM in dimethyl sulfoxide. This substrate was diluted into the assay for a final substrate concentration of 10 μM in the rat cathepsin K, human cathepsin K, and human cathepsin B assays; a final substrate concentration of 5 μM in the human cathepsin L assay; and a final substrate concentration of 2 μM in the human cathepsin V assay.\n(§2) All assays contained 10% dimethyl sulfoxide. […] All assays were conducted at 30° C. Product fluorescence (excitation at 360 nm; emission at 440 nm, (except cathepsin H which used excitation at 340 nm; emission at 420 nm)) was monitored with a PerSeptive Biosystems Cytofluor II fluorescence plate reader. Product progress curves were generated over 2.3 h monitoring the formation of 7-amino-4-methylcoumarin product (or β-naphthalamide for cathepsin H).\n(§3) Potential inhibitors were evaluated using the progress curve method. Assays were carried out in the presence of variable concentrations of test compound. Reactions were initiated by addition of buffered solutions of inhibitor and substrate to enzyme. Data analysis was conducted according to one of two procedures depending on the appearance of the progress curves in the presence of inhibitors. For those compounds whose progress curves were linear, the enzymatic activity (RATE) was plotted against the concentration of test compound, including inhibitor concentration of zero ([I]=0), and the IC50 determined from a fit of equation 1 to the data, RATE=Vmax/(1+([I]/IC50)) (1) where Vmax is the best fit estimate of the maximal enzymatic activity. Ki values were calculated from IC50 values using equation 2 assuming a competitive model. [formula]"}, "human cathepsin S": {"molecular_target": "human cathepsin S (Homo sapiens, UniProt P25774)", "sequence (P25774 115-331)": "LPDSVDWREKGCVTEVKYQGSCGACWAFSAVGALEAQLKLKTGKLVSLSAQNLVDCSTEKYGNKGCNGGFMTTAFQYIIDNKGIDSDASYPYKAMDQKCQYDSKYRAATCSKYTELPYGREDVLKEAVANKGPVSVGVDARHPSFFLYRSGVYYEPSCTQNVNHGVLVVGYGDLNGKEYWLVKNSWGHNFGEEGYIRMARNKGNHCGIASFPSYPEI", "experiment": "Cathepsin S inhibition assay, fluorogenic substrate Cbz-Val-Val-Arg-AMC", "details": "Table 2; human recombinant enzyme, pH 5.5, 30° C., 10 μM substrate; read-out: hCat S Ki", "description": "as §1\nA stock substrate solution of benzyl (1S)-1-{[((1S)-1-{[((1S)-4-{[amino(imino)methyl]amino}-1-{[(4-methyl-2-oxo-2H-chromen-7-yl)amino]carbonyl}butyl)amino]carbonyl}-2-methylpropyl)amino]carbonyl}-2-methylpropylcarbamate (Cbz-Val-Val-Arg-AMC) was prepared at a concentration of 10 mM in dimethyl sulfoxide. This substrate was diluted into the assay for a final substrate concentration of 10 μM in the human cathepsin S assay.\nas §2, §3"}, "human cathepsin K": {"molecular_target": "T1, human cathepsin K (Homo sapiens, UniProt P43235)", "T1 construct": "The proform of cathepsin K was converted to mature cathepsin K by brief exposure to pH 4; made in house; host or cells: baculovirus; Trichoplusia ni High Five cells (virus raised in Sf-9)", "T1 sequence (P43235 115-329)": "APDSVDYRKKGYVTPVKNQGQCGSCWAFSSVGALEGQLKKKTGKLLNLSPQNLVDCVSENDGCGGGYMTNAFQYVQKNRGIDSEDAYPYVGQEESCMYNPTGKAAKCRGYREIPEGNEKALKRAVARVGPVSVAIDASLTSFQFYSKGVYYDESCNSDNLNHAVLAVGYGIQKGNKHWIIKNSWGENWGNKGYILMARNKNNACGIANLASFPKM", "experiment": "Cathepsin K inhibition assay, fluorogenic substrate Cbz-Phe-Arg-AMC, progress curve method", "details": "human recombinant enzyme, pH 5.5, 30° C., 10 μM substrate, read-out: hCat K Ki", "procedure,_shortened": "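Recombinant human cathepsin K from insect cells, made mature by pH 4/L-cysteine activation, was assayed with 10 μM Cbz-Phe-Arg-AMC in 10% DMSO at 30° C. […]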"}}, "note": "Read-outs that look alike come from different tables or passages of the source.", "data": [{"compound": "CCCC[C@H](NC(=O)O[C@H](Cc1nnc(-c2ccc(F)cc2)o1)C(C)(C)C)C(=O)C(=O)Nc1ccnn1C", "note": "(stereo in doubt) [Example 22, (1R)-1-{[5-(4-fluorophenyl)-1,3,4-oxadiazol-2-yl]methyl}-2,2-dimethylpropyl(1S)-1-[[(1-methyl-1H-pyrazol-5-yl)amino](oxo)acetyl]pentyl carbamate]", "values": [{"measurement": "Ki", "setting": "human cathepsin V", "result": "100 to 10000", "unit": "nM"}, {"measurement": "Ki", "setting": "human cathepsin S", "result": "100 to 10000", "unit": "nM"}, {"measurement": "Ki", "setting": "human cathepsin K; Table 1", "result": "1 to 100", "unit": "nM"}, {"measurement": "Ki", "setting": "human cathepsin K; Table 2", "result": "1 to 100", "unit": "nM"}]}, {"compound": "CCCC[C@H](NC(=O)O[C@H](Cn1ccc(-c2ccc(C(F)(F)F)cc2)n1)C(C)(C)C)C(=O)C(=O)Nc1ccn[nH]1", "note": "[Example 1]", "values": [{"measurement": "Ki", "setting": "human cathepsin V", "result": "0.01 to 1", "unit": "nM"}, {"measurement": "Ki", "setting": "human cathepsin S", "result": "0.01 to 1", "unit": "nM"}, {"measurement": "Ki", "setting": "human cathepsin K; Table 1", "result": "0.01 to 1", "unit": "nM"}, {"measurement": "Ki", "setting": "human cathepsin K; Table 2", "result": "0.01 to 1", "unit": "nM"}]}, {"compound": "CCCC[C@H](NC(=O)O[C@H](Cn1cnc(-c2ccc(C(F)(F)F)cc2)c1)C(C)(C)C)C(=O)C(=O)Nc1ccn[nH]1", "note": "[Example 7, (1S)-2,2-dimethyl-1-({4-[4-(trifluoromethyl)phenyl]-1H-imidazol-1-yl}methyl)propyl(1S)-1-[oxo(1H-pyrazol-5-ylamino)acetyl]pentylcarbamate]", "values": [{"measurement": "Ki", "setting": "human cathepsin V", "result": "0.01 to 1", "unit": "nM"}, {"measurement": "Ki", "setting": "human cathepsin S", "result": "0.01 to 1", "unit": "nM"}, {"measurement": "Ki", "setting": "human cathepsin K; Table 1", "result": "0.01 to 1", "unit": "nM"}, {"measurement": "Ki", "setting": "human cathepsin K; Table 2", "result": "0.01 to 1", "unit": "nM"}]}, {"compound": "CCCC[C@H](NC(=O)O[C@H](Cn1cnc(-c2ccc(C(F)(F)F)cc2)c1)C(C)(C)C)C(=O)C(=O)Nc1ccnn1C1CCC1", "note": "[Example 35, (1S)-2,2-dimethyl-1-({4-[4-(trifluoromethyl)phenyl]-1H-imidazol-1-yl}methyl)propyl(1S)-1-[[(1-cyclobutyl-1H-pyrazol-5-yl)amino](oxo)acetyl]pentylcarbamate]", "values": [{"measurement": "Ki", "setting": "human cathepsin V", "result": "1 to 100", "unit": "nM"}, {"measurement": "Ki", "setting": "human cathepsin S", "result": "1 to 100", "unit": "nM"}, {"measurement": "Ki", "setting": "human cathepsin K; Table 1", "result": "1 to 100", "unit": "nM"}, {"measurement": "Ki", "setting": "human cathepsin K; Table 2", "result": "1 to 100", "unit": "nM"}]}, {"compound": "CCCC[C@H](NC(=O)O[C@H](Cn1cnc2cc(Cl)c(Cl)cc21)C(C)(C)C)C(=O)C(=O)Nc1ccn[nH]1", "note": "[Example 37, (1S)-1-[(5,6-dichloro-1H-benzimidazol-1-yl)methyl]-2,2-dimethylpropyl(1S)-1-[oxo(1H-pyrazol-5-ylamino)acetyl]pentylcarbamate]", "values": [{"measurement": "Ki", "setting": "human cathepsin V", "result": "0.01 to 1", "unit": "nM"}, {"measurement": "Ki", "setting": "human cathepsin S", "result": "0.01 to 1", "unit": "nM"}, {"measurement": "Ki", "setting": "human cathepsin K; Table 1", "result": "0.01 to 1", "unit": "nM"}, {"measurement": "Ki", "setting": "human cathepsin K; Table 2", "result": "0.01 to 1", "unit": "nM"}]}, {"compound": "CCCC[C@H](NC(=O)O[C@H](c1nnc(-c2ccc(C(F)(F)F)cc2)o1)C(C)(C)C)C(=O)C(=O)Nc1ccn[nH]1", "note": "[Example 38, (1S)-2,2-dimethyl-1-{5-[4-(trifluoromethyl)phenyl]-1,3,4-oxadiazol-2-yl}propyl(1S)-1-[oxo(1H-pyrazol-5-ylamino)acetyl]pentylcarbamate]", "values": [{"measurement": "Ki", "setting": "human cathepsin V", "result": "1 to 100", "unit": "nM"}, {"measurement": "Ki", "setting": "human cathepsin S", "result": "1 to 100", "unit": "nM"}, {"measurement": "Ki", "setting": "human cathepsin K; Table 1", "result": "0.01 to 1", "unit": "nM"}, {"measurement": "Ki", "setting": "human cathepsin K; Table 2", "result": "0.01 to 1", "unit": "nM"}]}, {"compound": "CCCC[C@H](NC(=O)O[C@H](c1nnc(-c2ccc(C(F)(F)F)cc2)o1)C(C)(C)C)C(=O)C(=O)NN1CCOC1=O", "note": "[Example 39, (1S)-2,2-dimethyl-1-{5-[4-(trifluoromethyl)phenyl]-1,3,4-oxadiazol-2-yl}propyl(1S)-1-{oxo[(2-oxo-1,3-oxazolidin-3-yl)amino]acetyl}pentylcarbamate]", "values": [{"measurement": "Ki", "setting": "human cathepsin V", "result": "1 to 100", "unit": "nM"}, {"measurement": "Ki", "setting": "human cathepsin S", "result": "1 to 100", "unit": "nM"}, {"measurement": "Ki", "setting": "human cathepsin K; Table 1", "result": "0.01 to 1", "unit": "nM"}, {"measurement": "Ki", "setting": "human cathepsin K; Table 2", "result": "0.01 to 1", "unit": "nM"}]}]}
